In patent publication US12459917B2, “Salt of diaminopyrimidine compounds, and solid form thereof, preparation method therefor and use thereof” (BEIJING TIDE PHARMACEUTICAL CO., LTD., priority 2019, dated 2025):
Converted amounts (≈) assume the structure as drawn.

Assay: Solubility test in FaSSIF at 37° C.
Assay type: physicochemical
Conditions: FaSSIF (Fasted State Simulated Intestinal Fluid), thermodynamic from solid
From the text: Experimental Example 3: Solubility Test

solubility at 30 min (30 min): 80 µg/mL (≈ 297 µM)
solubility at 2 h (2 h): 80 µg/mL (≈ 297 µM)
solubility at 24 h (24 h): 110 µg/mL (≈ 408 µM)
SMILES: C#Cc1cc(Oc2cnc(N)nc2N)c(C(C)C)cn1 [Free base, 5-((2-ethynyl-5-isopropylpyridin-4-yl)oxy)pyrimidine-2,4-diamine]
